Key:
Assay type in all cases: cell-based, human
[1] = system: T cells in PBMC of EBV seropositive donors; assay: IFN-γ ELISPOT assay, ex vivo stimulation of PBMC with LMP1 peptides
Experimental: The ELISPOT assay was used to assess whether stimulation of PBMC from a large panel of seropositive donors with LMP1 peptides could induce IFN-γ expression in T cells (Bharadwaj 2001). Briefly, ninety six-well mixed cellulose ester membrane plates (Millipore, Bedford, USA) were precoated with 100 μL/well of […] of anti-IFN-γ mAb, 1-D1K (Mabtech, Stockhohn, Sweden) overnight at 4° C. The plate was washed six times with phosphate-buffered saline (PBS), and unreactive sites blocked using 5% foetal bovine serum. PBMCs from healthy EBV carriers of known HLA types were separated from whole blood by Ficoll-Hypaque (Sigma) density gradient centrifugation. PBMCs were added in triplicate wells at 2.5×10^5 cells in a volume of 100 μL/well, and then peptides were added onto the PBMCs at a final 5 μg/mL concentration. PBMCs were also tested at different concentrations in triplicate wells at 2.5×10^5, 1.5×10^5 and 1×10^5 cells/well. PBMCs with various peptide concentrations, 10 μg/mL, 5 μg/mL and 1 μg/mL, were assayed. For negative controls, PBMCs were incubated in growth medium alone without adding peptides. The plate was incubated at 37° C. with 5% CO2 overnight (about 16-20 hr), then washed thrice with PBST (0.05% of Tween-20 in PBS) and three times with PBS before 100 μL/well of 1 μg/mL anti-IFN-γ mAb, 7-B6-1 (Mabtech, Stockholn, Sweden) was added and incubated at room temperature for 3-4 hr. After incubation, the plate was washed again thrice each with PBST and PBS, and 100 μL/well of 1 μg/mL streptavidin-alkaline phosphatase conjugate (Sigma) was added. The plate was incubated at room temperature for 2 hr. Wells were washed again three times each with PBST and PBS, and individual IFN-γ-producing cells were detected as dark spots after about 30-min to an hour-colour reaction with 5-bromo-4-chloro-3-indolylphosphate and nitroblue tetrazolium using an alkaline phosphatase-conjugated substrate (BCIP/NBT; Sigma). Spots were counted automatically using an image analysis software (ImagePro) (Bharadwaj 2001), and were expressed as spot-forming cells (SFC) per 10^6 PBMCs. The number of IFN-γ-secreting T cells was calculated by subtracting the negative control value from the SFC count.
To comprehensively profile the memory T cell responses against the LMP1 in seropositive virus carriers we used the ELISPOT assay, which allowed rapid ex vivo profiling of LMP1-specific immune response without prolonged in vitro culture. PBMC isolated from a panel of seropositive healthy virus carriers (Table 2) were stimulated with the complete set of overlapping LMP1 peptides and the cells that produced IFN-γ were detected. […] One of the interesting features of these responses was that the majority of the T cell reactivity was directed towards the epitopes within the transmembrane and CTAR1 domains of LMP1, while no reactivity was observed towards the CTAR2 and N-terminus (FIG. 1B). In particular, almost 80% of the CTAR1 domain was targeted for T cell recognition. To identify the T cell subsets responding to these peptides, PBMCs from the seven donors who recognized 17-mer peptides were fractionated into CD4-depleted and CD8-depleted populations and then tested again in ELISPOT assays. […] The CD4-dependent reactivity of the peptide […] was consistent with the previous observations by Leen and colleagues who mapped an HLA DQ2-restricted epitope within this sequence.
In order to determine the frequency of recognition of the HLA class I-restricted LMP1 CTL epitopes, PBMC from a panel of healthy virus carriers of diverse ethnic origin were screened by ELISPOT assays. Four different HLA class I-restricted and one HLA class II-restricted T cell epitopes were included in this analysis. Strong responses were observed against the HLA-A2-restricted […], […] and […] epitopes in 35-45% of the donors tested. […]

[2] = system: peptide-sensitised PHA blasts and LCLs; assay: 51Cr-release cytotoxicity assay with peptide-specific CTL lines and clones; settings: for generation of CTL lines with minimised epitope: donors; for sensitizing autologous PHA blast to lysis by YLLEMLWRL-specific CTL clone: serial dilutions of peptide, compared with wild-type YLLEMLWRL, CTL clone SB7
Experimental: Polyclonal CTL lines and LMP1-specific CTL clones were established according to previously published methods (Moss 1988; Khanna 1998). Briefly, 2×10^6 PBMCs were stimulated with 1×10^6 autologous lymphocytes (responder to stimulator ratio of 2:1) pulsed with 10 μM peptide for 1 hr in 2 ml in a 24-well plate. After 3 days, culture medium with IL-2 (10 U/ml) was added and the cells were further expanded. These lymphocytes were restimulated on day 7 with γ-irradiated (8000 rad) autologous LCLs. After 10 days in culture medium, the cells were used as polyclonal effectors in a standard ^51Cr-release assay against peptide-sensitised autologous PHA blasts.
To generate peripheral blood CTL clones specific for the LMP1 derived peptides, PBMCs of healthy donors were reactivated (2×10^6) PBMCs with peptide-sensitised (10 ug of peptide/ml) autologous lymphocytes (1×10^6) in 2 ml wells of a 24-well plate in culture medium. After 3 days, the cells were seeded onto 0.35% agarose and maintained in T cell growth medium containing rIL2 (50 IU/ml). After another 3 days, growing clones were transferred to 96-well round-bottom tissue culture plates (Life Technologies) and cultured in T cell growth medium containing rIL2 (50-100 IU/ml).
Target cells were pre-sensitized with synthetic peptide epitopes and then incubated with ^51Cr for 90 min. Following incubation, these cells were washed in growth medium and used as targets in a standard 5 h ^51Cr-release assay (Moss, 1988)
To further characterize the minimal T cell epitopes defined by ELISPOT assays we generated polyclonal and clonal CTL lines specific for these epitopes. PBMCs from the healthy seropositive donors were stimulated with synthetic peptide epitopes and the CTL clones or polyclonal lines were established and tested in standard ^51Cr-release assays. The […] peptide-specific CTL clones were generated using initial stimulation with peptide-sensitized autologous PBMC followed by continuous restimulation with irradiated autologous LCL. These CTL clones were screened for […]-specific CTL activity by ^51Cr release assays against peptide-sensitised autologous and allogeneic PHA blast and LCLs. […] Titration of this minimal epitope on autologous PHA blasts further confirmed the fine specificity of this CTL clone (FIG. 5B).

[3] = system: CD4+ and CD8+ T cell populations of PBMC; assay: IFN-γ ELISPOT on CD4- or CD8-depleted PBMC; settings: peptide 10 μg/ml
Experimental: FIG. 2: Ex vivo detection of IFN-γ secretion by CD4^+ and CD8^+ T cell populations following stimulation with LMP1 peptides. CD4^+ cells or CD8^+ cells were depleted from fresh PBMCs using anti-human CD4 or CD8 immunomagnetic beads as described in the Material and Methods section. These cells were resuspended in growth medium and stimulated with […] (SEQ ID NO: 36; panel A) and […] (SEQ ID NO: 39; panel B) peptides (10 μg/ml) and then tested for IFN-γ secretion using ELISPOT assays.
CD4^+ cells or CD8^+ cells were depleted from fresh PBMCs using anti-human CD4 or CD8 immunomagnetic beads (Dynabeads M450-CD4 and M450-CD8), respectively (Dynal, Oslo, Norway) according to the manufacturer's instructions. Efficient depletion was confirmed by staining the depleted PBMCs using dual staining with FITC-conjugated anti-CD8 and PE-conjugated anti-CD4 antibody and flow cytometry on a Coulter EPICS XL cytometer. […]
To comprehensively profile the memory T cell responses against the LMP1 in seropositive virus carriers we used the ELISPOT assay, which allowed rapid ex vivo profiling of LMP1-specific immune response without prolonged in vitro culture. PBMC isolated from a panel of seropositive healthy virus carriers (Table 2) were stimulated with the complete set of overlapping LMP1 peptides and the cells that produced IFN-γ were detected. […]

[4] = subject nineteen (NPC), donor theta

Row | Sequence | CTL response (SFC/10^6 PBMC) ([1]; subject beta) | CTL response (SFC/10^6 PBMC) ([1]; subject eleven) | CTL response (SFC/10^6 PBMC) ([1]; subject epsilon) | CTL response (SFC/10^6 PBMC) ([1]; subject fifteen) | CTL response (SFC/10^6 PBMC) ([1]; subject four) | CTL response (SFC/10^6 PBMC) ([1]; subject gamma) | CTL response (SFC/10^6 PBMC) [1, 4] [SFC/10^6 PBMC] | CTL response (SFC/10^6 PBMC) ([1]; subject thirteen) | CTL response (SFC/10^6 PBMC) ([1]; subject three) | CTL response (SFC/10^6 PBMC) ([1]; subject twenty) | CTL response (SFC/10^6 PBMC) ([1]; subject twenty-one) | CTL response (SFC/10^6 PBMC) ([1]; subject zeta) | other results
1 | ALLVLYSFA | 0 | 128 | 0 | 80 | 0 | 0 | 0 | 0 | 192 | 88 | 592 | 0 | CTL response (SFC/10^6 PBMC) ([1]; subject eighteen): 1184 SFC/10^6 PBMC; CTL response (SFC/10^6 PBMC) ([1]; subject one): 96 SFC/10^6 PBMC; CTL response (SFC/10^6 PBMC) ([1]; subject six): 480 SFC/10^6 PBMC; CTL response (SFC/10^6 PBMC) ([1]; subject twenty-two): 10 SFC/10^6 PBMC
2 | DSNSNEGRH |  |  |  |  |  |  |  |  |  |  |  |  | generation of CTL lines with minimised epitope [2]: did not generate CTL lines
3 | DWTGGALLVLYSFALML [LMP1 17-mer peptide] |  |  |  |  |  |  |  |  |  |  |  |  | T cell subset responding to the peptide [3]: only CD8^+ T-cell dependent reactivity
4 | ESDSNSNEG [reference compound] |  |  |  |  |  |  |  |  |  |  |  |  | generation of CTL lines with minimised epitope [2]: did not generate CTL lines
5 | IALYLQQNW |  | 504 |  |  |  | 0 | 0 |  |  |  |  |  | HLA B58-positive donors recognizing the epitope ([1]; responders/tested): 3/5; CTL response (SFC/10^6 PBMC) ([1]; subject delta): 0 SFC/10^6 PBMC; CTL response (SFC/10^6 PBMC) ([1]; subject eight): 1952 SFC/10^6 PBMC; CTL response (SFC/10^6 PBMC) ([1]; subject eta (NPC)): 0 SFC/10^6 PBMC; CTL response (SFC/10^6 PBMC) ([1]; subject five): 100 SFC/10^6 PBMC; CTL response (SFC/10^6 PBMC) ([1]; subject fourteen): 955 SFC/10^6 PBMC; CTL response (SFC/10^6 PBMC) ([1]; subject nine): 240 SFC/10^6 PBMC; CTL response (SFC/10^6 PBMC) ([1]; subject seventeen): 897 SFC/10^6 PBMC; CTL response (SFC/10^6 PBMC) ([1]; subject six): 455 SFC/10^6 PBMC; CTL response (SFC/10^6 PBMC) ([1]; subject ten): 80 SFC/10^6 PBMC; CTL response (SFC/10^6 PBMC) ([1]; subject two): 48 SFC/10^6 PBMC
6 | TDDSGHESDSNSNEGRH |  |  |  |  |  |  |  |  |  | 141 |  |  | recognition of peptide coated autologous PHA blasts by polyclonal CTL lines ([2]; CTL lines from two donors, data not shown): recognition; healthy virus carriers tested recognizing the epitope [1]: all three; healthy donors showing a CD8+ T-cell response in Elispot assays ([1]; responders/healthy donors assessed): 3/21; magnitude of responses ([1]; responding healthy donors): 131-190 SFC/10^6 PBMC; CTL response (SFC/10^6 PBMC) ([1]; subject seventeen): 190 SFC/10^6 PBMC; CTL response (SFC/10^6 PBMC) ([1]; subject ten): 131 SFC/10^6 PBMC; T cell subset responding to the peptide [3]: predominantly mediated by CD4+ cells
7 | YFLEILWGL |  |  |  |  |  |  |  |  |  |  |  |  | sensitizing autologous PHA blast to lysis by YLLEMLWRL-specific CTL clone [2]: poorly recognized
8 | YLLEMLWRL [reference compound] | 0 | 136 | 0 | 300 | 0 | 0 | 0 | 0 | 42 | 160 | 66 | 0 | CTL response (SFC/10^6 PBMC) ([1]; subject seven): 100 SFC/10^6 PBMC; CTL response (SFC/10^6 PBMC) ([1]; subject sixteen): 20 SFC/10^6 PBMC; CTL response (SFC/10^6 PBMC) ([1]; subject twelve): 0 SFC/10^6 PBMC
9 | YLMEILWRL |  |  |  |  |  |  |  |  |  |  |  |  | sensitizing autologous PHA blast to lysis by YLLEMLWRL-specific CTL clone [2]: poorly recognized
10 | YLQQNWWTL [reference compound] | 0 | 196 | 0 | 100 | 0 | 0 | 0 | 0 | 28 | 244 | 38 | 0 | CTL response (SFC/10^6 PBMC) ([1]; subject seven): 110 SFC/10^6 PBMC; CTL response (SFC/10^6 PBMC) ([1]; subject sixteen): 26 SFC/10^6 PBMC; CTL response (SFC/10^6 PBMC) ([1]; subject twelve): 44 SFC/10^6 PBMC

Source: US20070048329A1, “Epstein barr virus peptide epitopes, polyepitopes and delivery system therefor” (priority 2002, published 2007)
